# Experimental data: patent US20250136552A1, “ANTAGONISTS OF CAV 2.3” (LARIO THERAPEUTICS LIMITED, priority 2021, published 2025)
# Where two headings read alike, the source gives them in different places.
# Assays:
# [1] = molecular target: Cav2.3 dependent current in HEK-293 T-Rex/Kir2.1/Cav2.3e-β4-α2δ1 cells (Homo sapiens, UniProt Q15878); assay: Whole-cell patch clamp assay (QPatch 16X); format: cell-based; settings: whole-cell voltage clamp, room temperature, inward current density; mean ± S.E; read-out: Cav2.3 (pIC50) (converted)
# Protocol: HEK-293 T-Rex/Kir2.1/Cav2.3e-β4-α2δ1 cells were seeded 96 hours before experiment and doxycycline at 0.2 μg/mL was added 24 hours before experiment. Just before the experiments cells were washed twice with D-PBS w/o Ca2+/Mg2+ and gently detached from the flask with Detachin. Cells were then re-suspended in the suspension solution (25 mL EX-CELL ACF CHO medium; 0.25 mL of 100× Penicillin/Streptomycin) and placed on the Automated Patch-clamp platform (QPatch 16X).
# Standard whole-cell voltage clamp experiments were performed at room temperature using the single hole technology and the following intracellular and extracellular solutions (ICS and ECS, respectively) were used. ICS (mM): CsF 60, CsCl 50, NaCl 10, EGTA 20, BAPTA 5, HEPES 10, NaGTP 0.3, MgATP 5 (pH 7.2; ECS (mM): NMDG-Cl 120, BaCl2 20, HEPES 10, EGTA 7 (pH 7.4). After establishment of the seal and the passage in the whole-cell configuration, the Cav2.3 dependent current was evoked by challenging the cells with the following voltage protocol: the plasma membrane was held at −80 mV then a 50 ms-long depolarizing pulse at 0 mV, followed by a 50 ms-long hyperpolarizing pulse at −100 mV were applied and finally the plasma membrane was held back to −80 mV. This voltage protocol was applied every 10 seconds. Cav2.3 dependent current was first measured in control condition (vehicle, 0.1% DMSO), in the presence of increasing concentration of the compound under investigation and finally SNX 482 was added to fully block any R-type Cav2.3 dependent current.
# For data collection, the Sophion proprietary software was used while the analysis was performed off-line using Excel and GraphPad Prism. The inward current (Area Under Curve) measured during each depolarizing pulse was normalized to cell membrane capacitance (Cm) to obtain the average inward current density in each condition (control, compound under investigation and SNX 482). Then, the inhibitory effect of the compound under investigation was evaluated as % of the remaining inward current, normalized to the internal control. […] All data were expressed as mean±S.E
# Cav2.3 [2] = molecular target: T1, Cav2.3 (Homo sapiens, UniProt Q15878); assay: Human Cav2.3 channel calcium-influx assay; format: cell-based; settings: HEK-293 T-Rex/Kir2.1 cells with inducible Cav2.3e-β4-α2δ1; Fluo8 fluorescence; 8-point dose response from 30 μM; no pluronic acid; read-out: Cav2.3 (pIC50) (converted)
# Protocol: HEK-293 T-Rex cells were transfected with pcDNA3.1-Kir2.1 to generate a stable cell line. After antibiotic selection, the obtained stable pools were analysed using FLIPR^TETRA(membrane potential assay), and a limiting dilution was performed and a HEK-293 T-Rex/Kir2.1 clone was selected. The clone was transfected with pcDNA3.1-Cav2.3e and pBud-Cav-β4-α2δ1 to generate a stable cell line where the Cav2.3e expression is inducible. After antibiotic selection, functional clone pool analysis and two successive limiting dilutions, the final clone underwent a qPCR analysis and a biophysical and pharmacological validation using patch-clamp.
# A compound plate, containing 10 test compounds in eight-points dose response with n=4, was prepared. Test compounds dose response curves were prepared in automated fashion in 100% DMSO at CyBio Felix and starting from a stock solution in 100% DMSO; a defined volume was serially moved into destination wells pre-filled with the desired DMSO volume; stock solution concentration volumes were dependent on the final compounds concentrations to be tested and the final DMSO content used in the assay. For the assay test compounds dose response curves ranged from 30 μM and half log dilution with 0.3% final DMSO. In order to obtain the 8-points dose response curve all the concentrations were created by starting from a 10 mM DMSO stock solution and then moving 9.5 μL into a destination well pre-filled with 20.5 μL of 100% DMSO and repeating this step seven times. This initial step was done into 96 MTP plates, 10 compounds/plate. One 384 MTP was then reformatted to contain all the 10 compounds at 8 concentrations, quadruplicate data points. This so obtained 384 MTP compound plate served as source plate in a “mother to child” process with a CyBi®-Well dispenser in which 0.7 μL of compounds were moved into a destination plate pre-filled with 57.6 μL of Tyrode's buffer 0 mM K^+, thus obtaining 4× concentrated compounds solution. In columns 1-2 and 23-24 the control wells were added. Both “source” compound plate and “destination” compound plate were barcoded and a relationship between the two plates was thus generated.
# The day before the experiment, cells were detached by gentle wash with DPBS, followed by 5 min incubation at 37° C. with Trypsin solution. Detached cells were diluted with OptiMEM+Doxycycline at 0.2 μg/mL, counted and plated in Poly-D-Lysine coated black/clear bottom (15.000 c/well in 20 μl/well) by the use of a MATRIX WellMate dispenser. Plates were placed into a humidified incubator at 37° C. with 5% CO2 until the experimental day. 24 h after seeding 10 μL/well of 1.5× Fluo8 NW dye solution prepared in Tyrode's buffer 0 mM K^+ were added on top of the seeding medium. Cell plates were incubated for 40-60 min at RT in the dark. We then Injected off-line 10 μL/well of test compounds and controls 4× concentrated in Tyrode's Buffer 0 mM K+ with the CyBi®-Well instrument. Cell plates were incubated 3 minutes at RT. Finally, we injected 20 μL/well of 3× concentrated activator solution (K20-Na130-Ca2 buffer: 20 mM KCl, 130 mM NaCl, 2 mM CaCl2, 10 mM HEPES, 10 mM Glucose, final concentrations, prepared starting from “K0-Na150-Ca2” and “K150-Na0-Ca2” buffers) at FDSS7000EX instrument and read emitted fluorescence for 130 seconds.
# Data analysis was performed with Genedata Screener® software and reported compounds activity as % effect in relation to the normalization standards. The Kinetic Response Value (KRV) is calculated as follows:
# KRV=Maximal fluorescence recorded from second 5 to second 130 minus baseline fluorescence, computed as average from second 1 to second 2, of the kinetic trace. The KRV was normalized versus Neutral Controls and Inhibitor Controls in order to obtain the Activity[%] for each well. […] Therefore, the compound activity values were scaled (based on the two references) to a common range (two-point normalization). […]
# Target sequence in this assay (Q15878 1-2270 isoform Q15878-3): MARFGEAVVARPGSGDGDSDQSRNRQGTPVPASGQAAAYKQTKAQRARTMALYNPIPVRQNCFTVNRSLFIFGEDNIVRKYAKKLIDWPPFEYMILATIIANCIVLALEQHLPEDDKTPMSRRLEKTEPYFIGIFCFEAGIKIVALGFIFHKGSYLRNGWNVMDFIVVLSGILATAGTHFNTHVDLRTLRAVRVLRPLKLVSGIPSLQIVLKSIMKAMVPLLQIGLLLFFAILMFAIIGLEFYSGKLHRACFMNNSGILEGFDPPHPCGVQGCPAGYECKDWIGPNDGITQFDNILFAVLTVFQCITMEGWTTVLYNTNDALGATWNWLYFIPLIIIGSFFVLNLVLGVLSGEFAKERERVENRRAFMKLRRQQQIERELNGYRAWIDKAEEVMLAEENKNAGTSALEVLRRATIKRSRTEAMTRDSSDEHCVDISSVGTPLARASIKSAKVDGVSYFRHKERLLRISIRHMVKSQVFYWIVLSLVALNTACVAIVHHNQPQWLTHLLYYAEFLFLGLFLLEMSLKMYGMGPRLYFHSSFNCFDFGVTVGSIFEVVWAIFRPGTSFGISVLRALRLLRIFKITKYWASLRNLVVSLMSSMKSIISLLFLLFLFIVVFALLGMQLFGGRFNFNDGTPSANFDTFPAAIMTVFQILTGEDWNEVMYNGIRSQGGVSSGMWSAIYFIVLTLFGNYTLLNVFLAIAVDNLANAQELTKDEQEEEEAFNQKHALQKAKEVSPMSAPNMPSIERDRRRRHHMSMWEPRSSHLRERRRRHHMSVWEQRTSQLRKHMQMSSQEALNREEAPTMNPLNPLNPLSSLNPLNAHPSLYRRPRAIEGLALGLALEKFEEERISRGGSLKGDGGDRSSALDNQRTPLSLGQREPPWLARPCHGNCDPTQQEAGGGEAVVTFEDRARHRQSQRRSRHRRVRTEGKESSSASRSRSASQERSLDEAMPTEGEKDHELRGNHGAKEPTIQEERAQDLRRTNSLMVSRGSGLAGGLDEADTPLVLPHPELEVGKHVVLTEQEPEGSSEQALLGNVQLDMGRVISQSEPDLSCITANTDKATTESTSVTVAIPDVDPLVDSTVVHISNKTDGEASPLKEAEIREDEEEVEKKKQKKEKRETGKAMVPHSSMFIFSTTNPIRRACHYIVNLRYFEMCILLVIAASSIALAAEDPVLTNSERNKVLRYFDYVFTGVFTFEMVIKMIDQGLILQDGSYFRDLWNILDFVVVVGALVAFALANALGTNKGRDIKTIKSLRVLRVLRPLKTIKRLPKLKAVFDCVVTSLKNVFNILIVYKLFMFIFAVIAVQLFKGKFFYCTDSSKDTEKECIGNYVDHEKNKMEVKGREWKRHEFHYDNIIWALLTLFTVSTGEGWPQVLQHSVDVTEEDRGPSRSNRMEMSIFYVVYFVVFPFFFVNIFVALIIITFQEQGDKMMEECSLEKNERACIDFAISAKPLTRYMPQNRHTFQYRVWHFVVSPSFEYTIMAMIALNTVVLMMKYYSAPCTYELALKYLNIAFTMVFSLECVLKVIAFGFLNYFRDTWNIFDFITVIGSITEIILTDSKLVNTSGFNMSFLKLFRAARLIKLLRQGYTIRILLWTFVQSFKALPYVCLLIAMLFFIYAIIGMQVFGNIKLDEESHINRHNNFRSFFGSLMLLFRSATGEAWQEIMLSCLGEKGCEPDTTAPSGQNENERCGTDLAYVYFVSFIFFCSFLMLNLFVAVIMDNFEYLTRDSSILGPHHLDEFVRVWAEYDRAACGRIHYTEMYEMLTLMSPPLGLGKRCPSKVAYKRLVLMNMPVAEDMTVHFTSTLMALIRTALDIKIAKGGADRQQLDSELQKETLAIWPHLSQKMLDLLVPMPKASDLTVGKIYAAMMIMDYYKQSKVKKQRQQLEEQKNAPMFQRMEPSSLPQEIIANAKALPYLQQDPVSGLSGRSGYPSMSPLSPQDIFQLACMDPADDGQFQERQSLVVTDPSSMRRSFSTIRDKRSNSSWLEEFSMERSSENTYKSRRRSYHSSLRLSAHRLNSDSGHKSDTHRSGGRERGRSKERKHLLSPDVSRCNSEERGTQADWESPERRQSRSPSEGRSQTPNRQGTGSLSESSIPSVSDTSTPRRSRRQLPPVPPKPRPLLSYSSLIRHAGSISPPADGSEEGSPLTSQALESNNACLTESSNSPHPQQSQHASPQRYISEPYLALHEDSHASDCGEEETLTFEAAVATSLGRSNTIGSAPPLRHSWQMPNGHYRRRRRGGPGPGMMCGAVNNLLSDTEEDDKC
# Cav2.3 [3] = molecular target: T1, Cav2.3; settings: read-out: IC50 against Cav2.3; cited from earlier work
# Target sequence in this assay (Q15878 whole entry): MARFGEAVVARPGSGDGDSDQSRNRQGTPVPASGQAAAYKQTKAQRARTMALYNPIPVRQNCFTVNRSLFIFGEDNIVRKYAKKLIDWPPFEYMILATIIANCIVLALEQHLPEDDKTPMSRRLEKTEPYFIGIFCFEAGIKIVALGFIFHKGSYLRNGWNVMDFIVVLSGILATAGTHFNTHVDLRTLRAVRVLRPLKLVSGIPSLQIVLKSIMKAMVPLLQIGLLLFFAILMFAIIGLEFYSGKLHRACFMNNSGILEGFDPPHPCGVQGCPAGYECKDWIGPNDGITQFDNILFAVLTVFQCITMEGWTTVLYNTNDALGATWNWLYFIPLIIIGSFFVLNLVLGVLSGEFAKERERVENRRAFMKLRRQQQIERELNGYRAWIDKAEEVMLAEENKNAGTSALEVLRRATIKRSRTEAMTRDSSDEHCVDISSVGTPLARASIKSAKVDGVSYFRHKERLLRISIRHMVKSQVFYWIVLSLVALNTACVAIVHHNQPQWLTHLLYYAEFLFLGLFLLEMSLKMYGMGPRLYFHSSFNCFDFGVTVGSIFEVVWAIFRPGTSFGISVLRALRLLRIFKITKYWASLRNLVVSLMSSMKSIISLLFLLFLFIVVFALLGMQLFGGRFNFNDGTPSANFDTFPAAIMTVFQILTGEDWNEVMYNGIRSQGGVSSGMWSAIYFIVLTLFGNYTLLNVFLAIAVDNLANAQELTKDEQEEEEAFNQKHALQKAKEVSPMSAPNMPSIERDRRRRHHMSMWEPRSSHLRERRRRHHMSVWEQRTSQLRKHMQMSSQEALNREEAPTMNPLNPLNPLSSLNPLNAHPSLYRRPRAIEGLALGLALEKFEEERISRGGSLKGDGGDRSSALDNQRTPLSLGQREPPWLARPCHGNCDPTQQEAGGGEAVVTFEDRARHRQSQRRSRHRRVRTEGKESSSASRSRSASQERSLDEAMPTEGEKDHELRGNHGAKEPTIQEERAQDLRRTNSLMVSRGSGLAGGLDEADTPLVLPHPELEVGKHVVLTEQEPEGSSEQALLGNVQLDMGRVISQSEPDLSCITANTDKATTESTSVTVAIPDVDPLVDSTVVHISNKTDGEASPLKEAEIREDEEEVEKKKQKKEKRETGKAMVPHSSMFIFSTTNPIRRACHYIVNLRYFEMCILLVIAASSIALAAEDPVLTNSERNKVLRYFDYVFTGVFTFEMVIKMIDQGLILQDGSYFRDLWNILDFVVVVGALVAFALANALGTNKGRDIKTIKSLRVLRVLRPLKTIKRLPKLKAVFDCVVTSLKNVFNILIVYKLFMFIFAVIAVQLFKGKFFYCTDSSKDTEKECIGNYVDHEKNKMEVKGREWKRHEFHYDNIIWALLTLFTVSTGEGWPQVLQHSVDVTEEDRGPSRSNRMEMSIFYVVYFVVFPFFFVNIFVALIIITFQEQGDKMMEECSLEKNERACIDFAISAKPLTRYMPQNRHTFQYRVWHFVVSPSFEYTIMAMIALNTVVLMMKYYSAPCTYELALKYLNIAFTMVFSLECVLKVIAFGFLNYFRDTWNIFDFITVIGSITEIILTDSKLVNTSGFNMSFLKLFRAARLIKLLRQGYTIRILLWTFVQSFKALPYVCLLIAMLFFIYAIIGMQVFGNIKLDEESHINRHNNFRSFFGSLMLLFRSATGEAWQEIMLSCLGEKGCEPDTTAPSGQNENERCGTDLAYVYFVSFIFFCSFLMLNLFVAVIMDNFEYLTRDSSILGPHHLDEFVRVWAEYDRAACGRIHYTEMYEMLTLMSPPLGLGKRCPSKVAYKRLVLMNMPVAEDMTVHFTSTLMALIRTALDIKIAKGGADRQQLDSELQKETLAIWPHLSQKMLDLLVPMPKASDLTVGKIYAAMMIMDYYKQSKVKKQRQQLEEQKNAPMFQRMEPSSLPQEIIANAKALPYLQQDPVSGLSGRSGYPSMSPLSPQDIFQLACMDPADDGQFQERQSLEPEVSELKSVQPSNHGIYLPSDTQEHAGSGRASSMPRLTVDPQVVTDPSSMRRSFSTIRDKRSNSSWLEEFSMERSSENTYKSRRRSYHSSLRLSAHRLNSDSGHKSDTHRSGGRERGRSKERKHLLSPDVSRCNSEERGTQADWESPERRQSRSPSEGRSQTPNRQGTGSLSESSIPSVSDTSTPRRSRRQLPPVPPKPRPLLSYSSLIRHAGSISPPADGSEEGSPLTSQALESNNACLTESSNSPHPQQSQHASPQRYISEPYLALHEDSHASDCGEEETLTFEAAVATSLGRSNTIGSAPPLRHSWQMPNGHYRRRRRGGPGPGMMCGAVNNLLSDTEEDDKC
# Cav2.3 dependent current in HEK-293 T-Rex/Kir2.1/Cav2.3e-β4-α2δ1 cells, sequence (Q15878 1-2270 isoform Q15878-3): as the sequence (Q15878 1-2270 isoform Q15878-3) above
Compound,IC50 [1] [nM],IC50 (Cav2.3 [2]) [nM],IC50 (Cav2.3 [3]) [nM]
"CCN([C@@H](C)c1ccc(C(F)(F)F)cc1)S(=O)(=O)c1ccc2c(c1)CN(C(=O)C(C)C)CC2 [Example 1, (S)-N-ethyl-2-isobutyryl-N-(1-(4-(trifluoromethyl)phenyl)ethyl)-1,2,3,4-tetrahydroisoquinoline-7-sulfonamide]",251,661,–
"CCN([C@@H](C)c1ccc(C(F)(F)F)cc1)S(=O)(=O)c1ccc2c(c1)CCN(C(=O)C(C)C)C2 [Example 20, (S)-N-ethyl-2-isobutyryl-N-(1-(4-(trifluoromethyl)phenyl)ethyl)-1,2,3,4-tetrahydroisoquinoline-6-sulfonamide]",372,1580,–
"CCN([C@@H](C)c1ccc(F)cc1)S(=O)(=O)c1ccc2c(c1)CN(C(=O)C(C)C)CC2 [Example 12, (S)-N-ethyl-N-(1-(4-fluorophenyl)ethyl)-2-isobutyryl-1,2,3,4-tetrahydroisoquinoline-7-sulfonamide]",93.3,537,–
"CC(C)C(=O)N1CCc2ccc(S(=O)(=O)N(C)[C@H](c3ccc(F)cc3)C(F)(F)F)cc2C1 [Example 9, (R)-2-isobutyryl-N-methyl-N-(2,2,2-trifluoro-1-(4-fluorophenyl)ethyl)-1,2,3,4-tetrahydroisoquinoline-7-sulfonamide]",525,676,–
"CC(C)C(=O)N1CCc2ccc(S(=O)(=O)N(CCF)C(c3ccc(F)cc3)C(F)(F)F)cc2C1 (stereo not drawn) [Example 49, N-(2-fluoroethyl)-2-isobutyryl-N-(2,2,2-trifluoro-1-(4-fluorophenyl)ethyl)-1,2,3,4-tetrahydroisoquinoline-7-sulfonamide]",204,513,–
"CCN([C@@H](C)c1ccccc1)S(=O)(=O)c1ccc2c(c1)CN(C(=O)C1CC1)CC2 [Example 14, (S)-2-(cyclopropanecarbonyl)-N-ethyl-N-(1-phenylethyl)-1,2,3,4-tetrahydroisoquinoline-7-sulfonamide]",1120,724,–
"CCN([C@H](c1ccc(F)cc1)C(F)(F)F)S(=O)(=O)c1ccc2c(c1)CN(C(=O)C(C)C)CC2 (stereo in doubt) [Example 6, N-ethyl-2-isobutyryl-N-(2,2,2-trifluoro-1-(4-fluorophenyl)ethyl)-1,2,3,4-tetrahydroisoquinoline-7-sulfonamide]",87.1,398,–
"CCN([C@H](c1ccc(F)cc1)C(F)(F)F)S(=O)(=O)c1ccc2c(c1)CN(C(=O)C1CC1)CC2 [Example 48, (R)-2-(Cyclopropanecarbonyl)-N-ethyl-N-(2,2,2-trifluoro-1-(4-fluorophenyl)ethyl)-1,2,3,4-tetrahydroisoquinoline-7-sulfonamide]",–,427,–
"CC(C)N1Cc2ccc(S(=O)(=O)N(C)[C@@H](C)c3ccccc3)cc2CC1=O [Example 39, (S)-2-isopropyl-N-methyl-3-oxo-N-(1-phenylethyl)-1,2,3,4-tetrahydroisoquinoline-6-sulfonamide]",–,11700,–
"SNX-482 (GVDKAGCRYMFGGCSVNDDCCPRLGCHSLFSYCAWDLTFSD; UniProt P56854 1-41, looked up)",–,–,15 to 30
"CC(C)C(=O)N1CCc2ccc(S(=O)(=O)N(CCF)[C@@H](c3ccc(F)cc3)C(F)(F)F)cc2C1 [Example 50, (S)-N-(2-fluoroethyl)-2-isobutyryl-N-(2,2,2-trifluoro-1-(4-fluorophenyl)ethyl)-1,2,3,4-tetrahydroisoquinoline-7-sulfonamide]",–,3310,–
"CC(C)N1CCc2cc(S(=O)(=O)N(C)[C@@H](C)c3ccccc3)ccc2C1=O [Example 37, (S)-2-isopropyl-N-methyl-1-oxo-N-(1-phenylethyl)-1,2,3,4-tetrahydroisoquinoline-6-sulfonamide]",–,6460,–
"C[C@@H](c1ccccc1)N(C)S(=O)(=O)c1ccc2c(c1)CCN(C)C2=O [Example 38, (S)-N,2-dimethyl-1-oxo-N-(1-phenylethyl)-1,2,3,4-tetrahydroisoquinoline-6-sulfonamide]",–,6610,–
"CC(C)C(=O)N1CCc2ccc(S(=O)(=O)N(CCF)[C@H](c3ccc(F)cc3)C(F)(F)F)cc2C1 [Example 51, (R)-N-(2-fluoroethyl)-2-isobutyryl-N-(2,2,2-trifluoro-1-(4-fluorophenyl)ethyl)-1,2,3,4-tetrahydroisoquinoline-7-sulfonamide]",–,417,–
